Laboratory results as given in patent US10676710B2, “Cell culture compositions with antioxidants and methods for polypeptide production” (Genentech, Inc., priority 2013, dated 2020).

Assays:
[1] = system: antibody producing CHO cells; test: 2-liter stirred bioreactor fed-batch cell culture in basal Media 1/feed Media 2 supplemented with hypotaurine or analog; type: cell-based, Chinese hamster; conditions: for cell growth as measured by VCC: 12.95 mM hypotaurine or 10 mM carboxymethylcysteine in Media 1, 2 L bioreactor (FIG. 7A); for cell viability: 12.95 mM hypotaurine or 10 mM carboxymethylcysteine in Media 1, 2 L bioreactor (FIG. 7B); for antibody production (antibody titer by HPLC): 12.95 mM hypotaurine or 10 mM carboxymethylcysteine in Media 1, 2 L bioreactor (FIG. 8); for color intensity reduction of isolated antibody composition, specific color assay / color intensity reduction of isolated antibody composition, second color assay: 12.95 mM hypotaurine or 10 mM carboxymethylcysteine in Media 1, protein A pool 150 g/L; for color intensity reduction of isolated antibody composition, specific color assay: vs positive control (FIG. 9A); for color intensity reduction of isolated antibody composition, second color assay: vs positive control (FIG. 9B)
Method: Antibody producing CHO cells were inoculated at approximately 1.0×10^6 cells/mL in 2-liter stirred bioreactors (Applikon, Foster City, Calif.) containing 1 L of basal Media 1 supplemented with 12.95 mM hypotaurine or 10 mM carboxymethylcysteine (CAS number 638-23-3). Cells were cultured in fed-batch mode with addition of 100 mL of feed Media 2 per liter of cell culture fluid at days 3, 6 and 9 for initiation of the production phase. A positive control was included by culturing cells in Media 1 and 2 without hypotaurine supplementation. The concentration of glucose was analyzed every day and if the glucose concentration fell below 2 g/L, it was replenished from a […] stock solution of glucose for prevention of glucose depletion. Reactors were equipped with calibrated dissolved oxygen, pH and temperature probes. Dissolved oxygen was controlled on-line through sparging with air and/or oxygen. pH was controlled through addition of CO2 or Na2CO3 and antifoam was added to the cultures as needed. The cell cultures were maintained at pH 7.0 and a temperature of 37° C. from days 0 through 3, and then at 35° C. after day 3. The cell cultures were agitated at 275 rpm and the dissolved oxygen level was at 30% of air saturation. Osmolality was monitored using an osmometer from Advanced Instruments (Norwood, Mass.). Offline pH and metabolite concentrations were also determined daily using a Nova Bioprofile 400 (Nova Biomedical, Waltham, Mass.). VCC and cell viability was measured daily using a ViCell® automated cell counter (Beckman Coulter, Fullerton, Calif.). The cell culture fluid was collected daily by centrifuging 1 mL of cell culture fluid for determination of antibody titer using high performance liquid chromatography. At the end of the cell culture duration on day 14, when the amount of protein in the culture was approximately 2-10 g/L, the cell culture fluid from all samples was harvested by centrifugation. The monoclonal antibody in the harvested cell culture fluid was purified using protein A affinity chromatography. The protein A pool was concentrated to 150 g/L using Amicon Centricon centrifugal filter devices (Millipore Corporation, Billerica, Mass.). Color intensity of the concentrated antibody composition was measured in the concentrated protein A pool using two different assays wherein higher numerical values indicated higher color intensity and lower numerical values indicated lower color intensity. […] This color intensity reduction was confirmed by using a second color assay which detected an approximate 17% and 13% color intensity reduction in antibody compositions isolated from cell cultured in media supplemented with hypotaurine and carboxymethylcysteine, respectively (FIG. 9B).

IgG1 monoclonal antibody = test: Antioxidant incubation screening: color intensity of antibody composition after incubation in Media 1/Media 2 mixture; conditions: 1X test concentration in Media 1 + Media 2 mixture, 2 g/L IgG1 mAb, 5 days 37° C.; normalized to positive control (0% change)
Method: For antioxidant screening, a total volume of 40 ml media was prepared by mixing 1 part basal Media 1 and 0.3 part feed Media 2 to mirror a representative ratio of media used in cell culture conditions (Table 5). […] The samples were incubated at 37° C. with shaking at 250 rpm for a five day incubation period.
After incubation, the monoclonal antibody was purified using protein A affinity chromatography. The pool was concentrated to 150 g/L using Amicon Centricon centrifugal filter devices (Millipore Corporation, Billerica, Mass.). Color intensity of the concentrated antibody composition was measured in the concentrated protein A pool using an assay wherein higher numerical values indicate higher color intensity and lower numerical values indicate lower color intensity. The numerical results were normalized to the positive control, where the value for the positive control was set at 0% change in color intensity.

[2] = listed as carboxy methyl cysteine

SMILES | cell growth as measured by VCC [1] | cell growth as measured by VCC [1, 2] | cell viability [1] | cell viability [1, 2] | antibody production (antibody titer by HPLC) [1] | antibody production (antibody titer by HPLC) [1, 2] | color intensity reduction of isolated antibody composition, specific color assay [1] [%] | color intensity reduction of isolated antibody composition, second color assay [1] [%] | reduction of color intensity of the antibody-containing compositions (IgG1 monoclonal antibody)
N[C@@H](CSCC(=O)O)C(=O)O [carboxymethylcysteine, (2R)-2-amino-3-[(carboxymethyl)sulfanyl]propanoic acid] | comparable | did not compromise | comparable | did not compromise | comparable levels of antibody titers | did not significantly reduce | 13 | ~13 | –
NCCS(=O)(=O)O [Taurine, 2-aminoethane-1-sulfonic acid] | – | – | – | – | – | – | – | – | approximately 5%
NCCS(=O)O [hypotaurine, 2-aminoethane-1-sulfinate] | – | – | – | – | – | – | 27 | ~17 | –
